The values that follow come from patent US20210087248A1, “MODIFIED FIBROBLAST GROWTH FACTOR 1 (FGF-1) POLYPEPTIDES WITH INCREASED BINDING AFFINITY FOR HEPARIN AND ASSOCIATED METHODS” (Florida State University Research Foundation, Inc., priority 2014, published 2021).

Common to all, as to test: Heparin affinity study with isothermal titration calorimetry (ITC), sucrose octasulfate titration
What all share (assay type): binding
Conditions in all cases: 25 °C
A general note: In ITC the heat of successive injections is recorded.

For assay [1], the target named is human FGF-1 wild-type, no histag (no histag FGF wild-type), SEQ ID NO: 1 (Homo sapiens, UniProt P05230).
Chain of human FGF-1 wild-type, no histag (no histag FGF wild-type), SEQ ID NO: 1 (P05230 16-155 limits assumed): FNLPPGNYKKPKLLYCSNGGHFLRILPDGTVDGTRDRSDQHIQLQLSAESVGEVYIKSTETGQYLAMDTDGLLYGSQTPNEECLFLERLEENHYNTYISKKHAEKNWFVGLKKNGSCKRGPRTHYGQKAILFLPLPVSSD
For assay [2], the target named is T1, human FGF-1 variant S116R (Ser116Arg), N-terminal six His tag (hisFGF S116R), SEQ ID NO: 2 (Homo sapiens, UniProt P05230, S131R).
T1 construct: six His tag (N); made in house; host or cells: E. coli BL21(DE3), pET21a (+)
T1 sequence (P05230 16-155 S131R): as the sequence (P05230 16-155 limits assumed) above, with S116R counted along it
The source says:
(§1) A codon-optimized synthetic gene encoding 140 amino acids form of human FGF-1 (SEQ ID NO: 1) with an N-terminal six His tag was cloned into the pET21a (+) expression vector. The His tag has shown no influence upon stability, heparin affinity and mitogenic activity. Residue Ser116 inside of the heparin binding site of FGF-1 was mutated to Arginine (SEQ ID NO: 2) and Lysine (SEQ ID NO: 3) individually to increase potential ionic interactions with the sulfonate groups in HSGAG. This was achieved using a QUICKCHANGE site-directed mutagenesis protocol.
(§2) Each mutation was confirmed by DNA sequencing. The pET21a (+)/BL21(DE3) E. coli host expression system was used to express the FGF-1 heparin affinity mutants. The expressed polypeptide was purified via sequential nickel-nitrilotriacetic acid (Ni-NTA) column (Qiagen) and heparin Sepharose resin (GE Life Sciences, Pittsburgh Pa.). Previous studies of wild-type FGF-1 have shown that the above purification procedure results in protein >99% pure and appropriate for all biophysical studies.
(§3) Purified modified FGF-1 samples of SEQ ID NOs: 2 and 3 were dialyzed into 20 mM N-(2-acetamido) iminodiacetic acid (ADA), 100 mM NaCl, pH 7.4 for an ITC study. An iTC200 microcalorimeter (MicroCal) was used for data collection. […] The ITC running parameters were: 31 injections; first injection volume 0.5 μl and the rest of the injections 1 μl; temperature 25° C.; reference power 5. The titration curve after baseline subtraction was fitted with a single ligand-binding site model by manufacturer's software (MicroCal Origin). At least three independent trials were collected for each modified FGF-1 samples.

Assay [3] deals with T2, human FGF-1 variant S116K (Ser116Lys), N-terminal six His tag (hisFGF S116K), SEQ ID NO: 3 (Homo sapiens, UniProt P05230, S131K).
T2 construct: six His tag (N); made in house; host or cells: E. coli BL21(DE3), pET21a (+)
T2 sequence (P05230 16-155 S131K): as the sequence (P05230 16-155 limits assumed) above, with S116K counted along it
Excerpt: as §1, §2, §3

The target of assay [4] is T3, human FGF-1 wild-type, 140 amino acid form, N-terminal six His tag (hisFGF wild-type), SEQ ID NO: 1 (Homo sapiens, UniProt P05230).
T3 construct: six His tag (N); made in house; host or cells: pET21a(+) vector; E. coli BL21(DE3) is stated for the mutants, inferred for the wild type
T3 sequence (P05230 16-155): as the sequence (P05230 16-155 limits assumed) above

Setting [5] is: single ligand-binding site model.

SMILES strings stand for the structures.

What is called Kd is the equilibrium constant for the complex coming apart.

In the case of `O=S(=O)(O)OC[C@H]1O[C@@](COS(=O)(=O)O)(O[C@H]2O[C@H](COS(=O)(=O)O)[C@@H](OS(=O)(=O)O)[C@H](OS(=O)(=O)O)[C@H]2OS(=O)(=O)O)[C@@H](OS(=O)(=O)O)[C@@H]1OS(=O)(=O)O` [sucrose octasulfate], the Kd in assay [1] (20 mM ADA, 100 mM NaCl, pH 7.4) was 3.85 ± 0.09 µM; in assay [2] (20 mM ADA, 100 mM NaCl, pH 7.4), 2.46 ± 0.25 µM; in assay [3] (20 mM ADA, 100 mM NaCl, pH 7.4), 3.1 ± 0.47 µM; in assay [4] (20 mM ADA, 100 mM NaCl, pH 7.4), 3.94 ± 0.19 µM. For the same compound, the ΔH entry in assay [1] (pH 7.4) is “(−6963) ± 65 cal/mol”; in assay [2] (pH 7.4), “(−7081) ± 217 cal/mol”; in assay [3] (pH 7.4), “(−3339) ± 57 cal/mol”; in assay [4] (pH 7.4), “(−7506) ± 95 cal/mol”. In addition, the ΔS is given as 1.42 ± 0.18 cal/mol/deg in assay [1] (pH 7.4), 1.84 ± 0.92 cal/mol/deg in assay [2] (pH 7.4), “(−6.42) ± 3.04 cal/mol/deg” in assay [3] (pH 7.4) and “(−0.44) ± 0.23 cal/mol/deg” in assay [4] (pH 7.4). Also, the “N (site)” value stood at 0.980 ± 0.035 in assay [1] (setting [5]), 0.942 ± 0.036 in assay [2] (setting [5]), 1.012 ± 0.014 in assay [3] (setting [5]) and 0.917 ± 0.050 in assay [4] (setting [5]).
